From ChEMBL document CHEMBL1201862, “PubChem BioAssay data set” (2004)
Where a name gives a salt, the structure may show the parent alone. Active and inactive are the calls of the source.

Experiments:
[1] = THP-1 cell cytotoxicity, dose response, cytotoxicity control for Vif-APOBEC3G degradation inhibitor project, THP-1 cells (AID 1117359); assay type: functional; conditions: Human immunodeficiency virus 1, THP-1
[2] = target: T1, Estrogen receptor (Homo sapiens, UniProt P03372);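 further: potency for inhibiting coactivator peptide recruitment to the receptor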
T1 sequence (P03372 whole entry): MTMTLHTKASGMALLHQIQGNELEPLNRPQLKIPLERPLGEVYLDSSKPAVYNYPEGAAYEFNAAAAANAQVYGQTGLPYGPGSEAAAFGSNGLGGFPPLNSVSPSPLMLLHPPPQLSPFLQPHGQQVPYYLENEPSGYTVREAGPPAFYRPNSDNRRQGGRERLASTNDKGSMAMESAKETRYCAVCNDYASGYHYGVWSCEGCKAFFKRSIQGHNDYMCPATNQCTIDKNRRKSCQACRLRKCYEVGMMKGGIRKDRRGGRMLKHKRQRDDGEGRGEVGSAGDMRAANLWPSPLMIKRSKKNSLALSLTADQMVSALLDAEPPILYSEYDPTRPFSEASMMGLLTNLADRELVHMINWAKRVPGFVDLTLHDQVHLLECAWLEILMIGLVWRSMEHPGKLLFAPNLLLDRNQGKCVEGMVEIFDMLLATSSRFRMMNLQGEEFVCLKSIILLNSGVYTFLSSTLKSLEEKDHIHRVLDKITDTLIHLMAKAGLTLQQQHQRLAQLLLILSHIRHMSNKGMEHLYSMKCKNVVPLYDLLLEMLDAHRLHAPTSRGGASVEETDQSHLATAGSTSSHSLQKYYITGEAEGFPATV

[3] = P. falciparum 3D7-ScDHODH growth inhibitors, dose response, SYBR Green, dry powder samples (AID 1159570); assay type: functional, cell-based;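 further: parasite growth measured after 72 hours of compound exposure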
[4] = HepG2 cell cytotoxicity, dose response, cytotoxicity control, plate reader, dry powder samples (AID 1159569); assay type: functional, cell-based;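 further: inhibitor potency with signal falling toward the positive control level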
[5] = P. falciparum Dd2 growth inhibitors, dose response, SYBR Green, cherry-picked samples (AID 1159567); assay type: functional, cell-based
[6] = P. falciparum Dd2 growth inhibitors, dose response, SYBR Green, dry powder samples (AID 1159566); assay type: functional, cell-based;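 further: potency for growth inhibition with lower SYBR green DNA signal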
[7] = HepG2 cell cytotoxicity, dose response, cytotoxicity control, cherry-picked samples (AID 1159577); assay type: functional, cell-based
[8] = P. falciparum ATP4 D1247Y mutant growth inhibitors, dose response, NITD609-resistant line, SYBR Green, dry powder (AID 1159571); assay type: functional, cell-based;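 further: parasites synchronized at ring stage by sorbitol before testing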
[9] = target: G-protein coupled receptor 35 (Homo sapiens, UniProt Q9HC97); assay: GPR35 antagonists blocking zaprinast-driven arrestin recruitment, primary screen, imaging, U2OS, beta-arrestin-GFP, zaprinast agonist (AID 2058); assay type: functional;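 further: antagonist potency meaning inhibition of agonist-induced arrestin redistribution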
G-protein coupled receptor 35, sequence (Q9HC97 whole entry): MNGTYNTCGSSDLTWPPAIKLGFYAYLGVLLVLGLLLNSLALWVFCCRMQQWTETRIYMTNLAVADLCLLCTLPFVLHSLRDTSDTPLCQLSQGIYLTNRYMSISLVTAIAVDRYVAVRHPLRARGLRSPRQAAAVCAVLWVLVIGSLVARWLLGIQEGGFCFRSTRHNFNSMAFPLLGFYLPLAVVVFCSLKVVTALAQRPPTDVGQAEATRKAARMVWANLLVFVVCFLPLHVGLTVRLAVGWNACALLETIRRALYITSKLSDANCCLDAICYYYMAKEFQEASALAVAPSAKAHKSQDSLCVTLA

[10] = Luminescence Cell-Based Dose Confirmation HTS to Identify Activators of 5'UTR Stem-Loop Driven Alpha-Synuclein mRNA Translation in H4 Neuroglioblastoma Cells. [Related pubchem assays: 1829 (Project Summary), 1814 (Primary HTS)]; assay type: functional
[11] = Luminescence Cell-Based Dose Response HTS to Identify Activators of Luciferase Translation or Activity in H4 […] Cells. [Related pubchem assays: 1829 (Project Summary), 1814 (Primary HTS)]; assay type: functional
[12] = tested on: H4; assay: Luminescence Cell-Based Dose Response HTS to Identify Activators of 5'UTR Stem-Loop Driven Prion Protein mRNA Translation in H4 Neuroglioblastoma Cells. [Related pubchem assays: 1829 (Project Summary), 1814 (Primary HTS)]; assay type: functional; conditions: Homo sapiens
[13] = target: T2, Short transient receptor potential channel 4 (Mus musculus, UniProt Q9QUQ5); assay: mouse TRPC4 channel activators, dose response, cell-based, HEK293 TRPC4/mu-opioid, Fluo-4 calcium (AID 434937); assay type: functional
T2 sequence (Q9QUQ5 whole entry): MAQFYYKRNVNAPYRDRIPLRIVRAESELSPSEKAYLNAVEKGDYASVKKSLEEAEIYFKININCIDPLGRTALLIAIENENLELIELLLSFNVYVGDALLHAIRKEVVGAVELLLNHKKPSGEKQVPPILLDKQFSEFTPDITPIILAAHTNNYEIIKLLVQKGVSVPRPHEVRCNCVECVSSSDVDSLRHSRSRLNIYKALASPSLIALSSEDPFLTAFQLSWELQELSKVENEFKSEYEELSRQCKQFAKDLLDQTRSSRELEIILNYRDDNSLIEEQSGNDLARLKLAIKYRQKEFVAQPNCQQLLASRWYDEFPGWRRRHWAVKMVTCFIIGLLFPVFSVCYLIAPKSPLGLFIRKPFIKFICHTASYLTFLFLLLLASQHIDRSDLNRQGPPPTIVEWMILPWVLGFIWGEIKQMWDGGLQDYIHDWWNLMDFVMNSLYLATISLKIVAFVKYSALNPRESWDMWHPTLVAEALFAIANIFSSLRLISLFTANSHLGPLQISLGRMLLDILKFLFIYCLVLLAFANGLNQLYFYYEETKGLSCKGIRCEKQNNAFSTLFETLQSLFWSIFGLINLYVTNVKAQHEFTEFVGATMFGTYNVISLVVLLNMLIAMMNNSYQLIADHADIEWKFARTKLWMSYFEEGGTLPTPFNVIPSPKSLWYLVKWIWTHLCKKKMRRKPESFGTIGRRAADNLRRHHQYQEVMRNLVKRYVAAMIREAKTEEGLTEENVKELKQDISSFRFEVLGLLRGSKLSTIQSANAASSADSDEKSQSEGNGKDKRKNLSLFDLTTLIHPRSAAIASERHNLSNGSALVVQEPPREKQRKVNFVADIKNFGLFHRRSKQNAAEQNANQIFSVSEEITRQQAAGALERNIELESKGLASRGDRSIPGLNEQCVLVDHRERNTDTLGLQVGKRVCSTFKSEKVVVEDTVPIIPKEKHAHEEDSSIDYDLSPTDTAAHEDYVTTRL

[14] = target: T3, Aryl hydrocarbon receptor (Homo sapiens, UniProt P35869); assay: Luminescence-based cell-based high throughput dose response assay for activators of the Aryl Hydrocarbon Receptor (AHR). [Related pubchem assays: 2796 (Primary screen (AHR activators in singlicate)), 2845 (Confirmation screen (AHR activators in triplicate)), 434939 (Counterscreen (PXR activators in triplicate)), 2804 (Summary (AHR activators))]; assay type: ADME
T3 sequence (P35869 whole entry): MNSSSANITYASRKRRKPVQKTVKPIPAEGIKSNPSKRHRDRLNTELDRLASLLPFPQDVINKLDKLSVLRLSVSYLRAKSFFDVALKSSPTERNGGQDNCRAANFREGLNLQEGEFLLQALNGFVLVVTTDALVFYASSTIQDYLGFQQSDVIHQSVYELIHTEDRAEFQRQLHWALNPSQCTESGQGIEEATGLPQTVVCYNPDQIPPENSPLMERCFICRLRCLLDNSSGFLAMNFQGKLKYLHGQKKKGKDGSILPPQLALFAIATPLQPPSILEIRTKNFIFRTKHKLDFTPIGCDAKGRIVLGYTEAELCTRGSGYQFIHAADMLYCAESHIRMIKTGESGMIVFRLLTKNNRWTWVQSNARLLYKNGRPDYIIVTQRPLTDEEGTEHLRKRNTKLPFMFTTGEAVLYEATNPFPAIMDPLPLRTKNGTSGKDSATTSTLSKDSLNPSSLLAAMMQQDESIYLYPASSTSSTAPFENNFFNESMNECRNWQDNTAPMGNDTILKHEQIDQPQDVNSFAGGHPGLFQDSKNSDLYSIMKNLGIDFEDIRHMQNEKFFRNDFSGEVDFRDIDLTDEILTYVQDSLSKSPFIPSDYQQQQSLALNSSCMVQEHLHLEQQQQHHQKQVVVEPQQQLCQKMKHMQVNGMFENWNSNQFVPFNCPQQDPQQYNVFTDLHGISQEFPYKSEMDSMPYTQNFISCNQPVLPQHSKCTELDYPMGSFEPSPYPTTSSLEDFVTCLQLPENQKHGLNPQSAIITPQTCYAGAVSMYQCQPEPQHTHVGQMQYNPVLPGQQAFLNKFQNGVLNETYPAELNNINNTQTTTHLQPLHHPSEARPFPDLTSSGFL

[15] = target: DNA dC->dU-editing enzyme APOBEC-3A (Homo sapiens, UniProt P31941); assay: Dose Response confirmation of small molecule APOBEC3A DNA Deaminase Inhibitors via a fluorescence-based single-stranded DNA deaminase assay. [Related pubchem assays (depositor defined):AID493011, AID493024]; assay type: functional
DNA dC->dU-editing enzyme APOBEC-3A, sequence (P31941 whole entry): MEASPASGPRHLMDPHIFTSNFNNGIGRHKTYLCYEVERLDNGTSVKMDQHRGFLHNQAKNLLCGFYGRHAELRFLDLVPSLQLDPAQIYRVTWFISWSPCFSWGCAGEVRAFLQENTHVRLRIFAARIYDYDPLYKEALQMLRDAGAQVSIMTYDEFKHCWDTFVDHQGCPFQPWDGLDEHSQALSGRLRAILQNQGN

[16] = target: DNA dC->dU-editing enzyme APOBEC-3G (Homo sapiens, UniProt Q9HC16); assay type: functional;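 further: Dose-response counterscreen measuring inhibition of APOBEC3G DNA deaminase activity, run while confirming APOBEC3A inhibitors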
DNA dC->dU-editing enzyme APOBEC-3G, sequence (Q9HC16 whole entry): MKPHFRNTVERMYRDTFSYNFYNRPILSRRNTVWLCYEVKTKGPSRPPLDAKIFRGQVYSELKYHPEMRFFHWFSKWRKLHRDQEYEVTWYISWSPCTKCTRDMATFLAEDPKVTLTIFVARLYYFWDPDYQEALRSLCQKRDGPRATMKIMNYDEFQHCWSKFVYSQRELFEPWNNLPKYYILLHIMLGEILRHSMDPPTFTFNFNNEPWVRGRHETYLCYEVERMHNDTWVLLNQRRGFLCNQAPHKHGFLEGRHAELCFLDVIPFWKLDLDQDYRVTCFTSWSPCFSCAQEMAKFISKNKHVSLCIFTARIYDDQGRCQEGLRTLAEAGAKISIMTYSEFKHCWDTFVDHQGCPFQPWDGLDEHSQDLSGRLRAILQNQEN

[17] = target: T4, NADPH oxidase 1 (Homo sapiens, UniProt Q9Y5S8); assay type: functional, cell-based;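 further: Cell-based assay with luminescence read-out, IC50 derived from inhibitor dose-response curves; intracellular ROS from endogenous NOX1 in intact HT29 colon cancer cells; potency of inhibitors that lower the ROS luminescence signal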
T4 sequence (Q9Y5S8 whole entry): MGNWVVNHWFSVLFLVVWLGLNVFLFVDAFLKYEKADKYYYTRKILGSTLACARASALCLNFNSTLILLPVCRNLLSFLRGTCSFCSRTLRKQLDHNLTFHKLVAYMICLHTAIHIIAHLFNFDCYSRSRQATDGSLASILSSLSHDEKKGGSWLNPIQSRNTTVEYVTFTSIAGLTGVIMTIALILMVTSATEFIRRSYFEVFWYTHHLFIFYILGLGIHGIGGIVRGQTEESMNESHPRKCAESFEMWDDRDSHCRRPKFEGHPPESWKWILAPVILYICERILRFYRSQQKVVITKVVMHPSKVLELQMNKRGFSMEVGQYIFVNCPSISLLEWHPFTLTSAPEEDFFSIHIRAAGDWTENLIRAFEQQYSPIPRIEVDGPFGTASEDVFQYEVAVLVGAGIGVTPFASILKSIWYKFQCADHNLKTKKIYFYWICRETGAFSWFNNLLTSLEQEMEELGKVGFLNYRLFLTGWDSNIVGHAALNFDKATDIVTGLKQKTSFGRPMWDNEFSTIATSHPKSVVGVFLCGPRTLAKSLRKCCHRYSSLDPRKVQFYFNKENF

[18] = target: FAD-linked sulfhydryl oxidase ALR (Homo sapiens, UniProt P55789); assay: inhibitors of human ALR sulfhydryl oxidase, dose response, biochemical, H2O2 detection, luminescence, cherry-pick (AID 493248)
FAD-linked sulfhydryl oxidase ALR, sequence (P55789 whole entry): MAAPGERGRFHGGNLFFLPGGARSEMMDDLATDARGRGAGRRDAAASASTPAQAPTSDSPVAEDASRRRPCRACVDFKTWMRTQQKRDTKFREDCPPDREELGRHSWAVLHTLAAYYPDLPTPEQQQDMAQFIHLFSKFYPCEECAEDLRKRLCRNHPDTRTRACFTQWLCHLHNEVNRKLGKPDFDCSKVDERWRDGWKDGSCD

[19] = HEp-2 cell cytotoxicity, dose response, cytotoxicity control for RSV inhibitor project, HTS (AID 2410); assay type: functional; conditions: human respiratory syncytial virus
[20] = HeLa cell cytotoxicity, dose response, cytotoxicity control for MgcRacGAP inhibitor project (AID 624300); assay type: functional
[21] = target: T5, Rac GTPase-activating protein 1 (Homo sapiens, UniProt Q9H0H5); assay: MgcRacGAP GTPase-activating activity inhibitors, confirmation, biochemical, ADP Hunter fluorescence, primary and confirmatory (AID 624330); assay type: functional
T5 sequence (Q9H0H5 whole entry): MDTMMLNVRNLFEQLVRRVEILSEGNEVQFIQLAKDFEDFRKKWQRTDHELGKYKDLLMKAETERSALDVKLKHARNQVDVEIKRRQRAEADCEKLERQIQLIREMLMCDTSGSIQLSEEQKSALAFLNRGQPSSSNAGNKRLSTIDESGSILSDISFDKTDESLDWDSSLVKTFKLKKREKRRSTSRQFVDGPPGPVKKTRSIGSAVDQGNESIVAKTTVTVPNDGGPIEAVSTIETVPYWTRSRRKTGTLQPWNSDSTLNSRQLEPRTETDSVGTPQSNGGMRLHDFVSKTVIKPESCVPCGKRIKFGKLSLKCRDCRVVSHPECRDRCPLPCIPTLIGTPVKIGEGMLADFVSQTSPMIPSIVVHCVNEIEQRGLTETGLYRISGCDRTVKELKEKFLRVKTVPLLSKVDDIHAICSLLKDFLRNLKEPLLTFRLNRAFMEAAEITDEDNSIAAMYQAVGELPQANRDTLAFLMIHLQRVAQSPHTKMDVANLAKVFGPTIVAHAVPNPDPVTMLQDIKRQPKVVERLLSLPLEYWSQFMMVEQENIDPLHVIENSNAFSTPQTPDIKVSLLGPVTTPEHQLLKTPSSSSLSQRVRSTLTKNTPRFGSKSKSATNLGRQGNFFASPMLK

[22] = cells; assay type: functional, cell-based
[23] = cells; assay type: functional, cell-based; remark: listed apart in the source

## O=C(NCCC1CCCCN1S(=O)(=O)c1ccc(F)cc1)C(=O)NCc1ccccn1 (configuration not stated)
[1]
  CC50: > 40 µM (active)

## O=S(=O)(/N=C(\Sc1ccc(Cl)cc1)c1ccccc1)c1ccccc1
[2]
  IC50: > 50 µM (not active)

## C[C@@H]1CN([C@H](C)CO)C(=O)c2cc(C#Cc3ccccc3)cnc2O[C@H]1CN(C)C(=O)CCN1CCCCC1
[3]
  AC50: 2.34 µM (active)
[4]
  AC50: 22.9 µM (active)
[5]
  AC50: 2.23 µM (active)
[6]
  AC50: 1.49 µM (active)
[7]
  AC50: 35.6 µM (active)
[8]
  AC50: 1.79 µM (active)

## CN(C)c1ccc(-c2sc(Nc3ccccc3)n[n+]2-c2ccc(F)cc2)cc1
[9]
  IC50: 1.33 µM (active)
[10]
  EC50: > 120 µM (not active)
[11]
  EC50: 17.8 µM (active)
[12]
  EC50: > 120 µM (not active)
[13]
  EC50: 10.6 µM (active)

## CN(C)CC(=O)N[C@@H]1C[C@@H]2O[C@@H](CO)CC[C@@H]2O[C@@H]1CCc1ccc(C2=CCCCC2)cc1
[5]
  AC50: 6.13 µM (active)
[7]
  AC50: 27.7 µM (active)

## C#CCn1cc(/C=N/NC(=O)COc2cccc3cccnc23)c2ccccc21
[14]
  EC50: > 0.377 µM (active)
[15]
  IC50: > 100 µM (inactive)
[16]
  IC50: > 100 µM (inactive)

## Fc1ccc2c(c1)Sc1ccccc1N2
[17]
  IC50: 0.24 µM (active)

## CN(C)CCCN1c2ccccc2Sc2ccccc21 [PROMAZINE HYDROCHLORIDE]
[17]
  IC50: > 17 µM (not active)
[18]
  AC50: 1.28 µM (active)

## COc1ccc(/C=N/Nc2nc3ccccc3[nH]2)cc1OC
[19]
  CC50: 20.8 µM (active)
[14]
  EC50: 3.46 µM (active)
[18]
  AC50: 0.285 µM (active)
[20]
  CC50: 100 µM (active)
[21]
  IC50: 74 µM (active)

## COc1cc2ccccc2cc1C(=O)Nc1ccc(C)cc1
[22]
  EC50: > 350 µM (not active)
[23]
  EC50: 29.2 µM (active)
[14]
  EC50: 0.394 µM (active)

## O=C(Nc1nc2ccccc2s1)c1ccc(N2CCCCC2)c([N+](=O)[O-])c1
[9]
  IC50: 1.12 µM (active)

## COc1ccc(C2CC(c3c(O)nc4ccc(Cl)cc4c3-c3ccccc3)=NN2S(C)(=O)=O)cc1OC (configuration not stated)
[2]
  IC50: 12.4 µM (active)

## NC(=O)c1ccccc1NC(=O)/C=C/c1ccc(Cl)cc1
[1]
  CC50: > 40 µM (active)
